Assay results as given in patent publication US6288111A (Research Development Foundation, priority 1995, dated 2001).
Like-named read-outs stand apart in the source and are kept apart here.

Experiments:
melanoma [1] = experiment: Clinical trial: response of melanoma patients to DDP alone, then TAM/DDP; type: in vivo, human
Excerpt: A complete response was defined as the complete disappearance of all evidence of disease for at least 4 weeks. A partial response was a decrease in the mean diameter of the target lesion by 50% or more lasting at least 4 weeks. A mixed response was a decrease in the diameter of some target lesions of 50% or more while others remained stable or increased in size.
Patients were retreated every 3 weeks. […] Subsequent patients received an ondansetron-based regimen.

[2] = system: T-289 human melanoma cells; experiment: Development of DDP resistance in T-289 cells (selection with DDP ± TAM, colony formation assay); type: cell-based
melanoma [3] = conditions: 203 treated melanoma patients; cited from earlier work
[4] = Clinical trial: toxicities with DDP or DDP/TAM treatment; conditions: in words
Excerpt: (§1) Entry requirements included histologically documented melanoma, measurable disease, signed informed consent, and no anti-tumor therapy during the previous 4 weeks. Patients were required to have normal hematologic and renal function, an Eastern Cooperative Oncology Group (ECOG) performance status of 0-2 and an estimated survival of at least 3 months. Patients with a previous history of deep venous thrombosis or pulmonary embolism were excluded.
(§2) Pre-treatment hydration consisted of 1 liter of 5% dextrose/0.45%saline containing 20 mEq of potassium chloride and 2 g magnesium sulfate administered over 4 hours. […] Patients were retreated every 3 weeks. On cycles where TAM was administered, 40 mg p.o. four doses per day were given on day 1 followed by 20 mg p.o. daily thereafter.

[5] = read-out: Steady-state plasma concentration; chronic administration, 10 mg p.o. twice a day; cited from earlier work
[6] = Plasma concentrations of TAM in patients; conditions: predicted from in vitro data
[7] = human, in vivo
Excerpt: as §1, §2

[8] = DDP alone: 24 patients, TAM/DDP: 20 patients (19 evaluated), after DDP alone
[9] = DDP alone: 24 patients, TAM/DDP: 20 patients, after DDP alone
[10] = of the 19 patients evaluated for TAM/DDP

N.N.[Cl][Pt][Cl] [DDP, cis-diamminedichloroplatinum (II)]
Duration of complete response (melanoma [1]; DDP alone, one patient): more than 15 months
Stable off treatment after partial response (melanoma [1]; DDP alone, one patient): ≥ 6 months
Time to progression after partial response (melanoma [1]; DDP alone, one patient): 4 months
Complete Response (%) (melanoma [1]; DDP alone: 24 patients): 4%
Progressive Disease (number of patients) (melanoma [1]; DDP alone: 24 patients (two refused DDP/TAM), TAM/DDP: 20 patients): 19 patients
Stable Disease (number of patients) (melanoma [1]; DDP alone: 24 patients, TAM/DDP: 20 patients): 2 patients
Mixed Response (number of patients) (melanoma [1]; [8]): 0 patients
Partial Response (number of patients) (melanoma [1]; [8]): 2 patients
Complete Response (number of patients) (melanoma [1]; [9]): One
Partial Response (%) (melanoma [1]; [9]): 8%
Complete Response (number of patients) (melanoma [1]; DDP alone: 24 patients, TAM/DDP: 20 patients, after DDP alone, listed as Cisplatin): 1 patients
Progressive disease while receiving single agent DDP (number of patients) (melanoma [1]; [10]): 17 patients
Stable disease while receiving single agent DDP (number of patients) (melanoma [1]; [10]): 2 patients
Time at which DDP resistance became apparent ([2]; T-289, selection): 200 days
Rate of emergence of DDP resistance, DDP alone compared with DDP and TAM ([2]; T-289, p<0.01): 2.75 fold

CC/C(=C(\c1ccccc1)c1ccc(OCCN(C)C)cc1)c1ccccc1 [TAM, tamoxifen]
Response rate, single agent TAM (melanoma [3]): 6%
Nephrotoxicity [4]: nephrotoxicity was uncommon and unaffected by the administration of TAM
Overall toxicity / tolerability [4]: No increased toxicity was noted with the addition of TAM to single agent DDP
Nausea or vomiting ([4]; during hospitalization for ondonsetron): did not increase nausea or vomiting
Outcome of treatment in words (melanoma [1]; TAM and DDP in patients resistant to single agent DDP): can overcome established resistance to DDP in a significant fraction of patients with malignant melanoma
concentration [5]: ~290 nM
Plasma concentration predicted to be necessary in DDP resistant patients [6]: more than 1.0 μM
Effect on development of DDP resistance ([2]; T-289, concurrent DDP and TAM, in words): can delay the development of DDP resistance

Cc1nccn1CC1CCc2c(c3ccccc3n2C)C1=O (stereo not drawn) [ondonsetron]
Nausea or vomiting [7]: markedly reduced nausea and vomiting during hospitalization
